Experimental data: patent publication US20110306573A1, “NUCLEOSIDE DERIVATIVES AS INHIBITORS OF VIRAL POLYMERASES” (priority 2008, published 2011)
Structures can show the parent of a compound that is named as a salt.

Each compound was assayed on subgenomic HCV Replicon in HuH-7 hepatoma cells (assay: Assay for inhibition of HCV RNA replication (subgenomic replicon, in situ ribonuclease protection SPA)). Conditions: Hepatitis C virus, Huh-7.
Assay type: cell-based, Hepatitis C Virus
Description: The compounds of the present invention were also evaluated for their ability to affect the replication of Hepatitis C Virus RNA in cultured hepatoma (HuH-7) cells containing a subgenomic HCV Replicon. The details of the assay are described below. This Replicon assay is a modification of that described in V. Lohmann, F. Korner, J-O. Koch, U. Herian, L. Theilmann, and R. Bartenschlager, “Replication of a Sub-genomic Hepatitis C Virus RNAs in a Hepatoma Cell Line,” Science 285:110 (1999).
The assay was an in situ Ribonuclease protection, Scintillation Proximity based-plate assay (SPA). 10,000-40,000 cells were plated in 100-200 μL of media containing 0.8 mg/mL G418 in 96-well cytostar plates (Amersham). Compounds were added to cells at various concentrations up to 100 μM in 1% DMSO at time 0 to 18 h and then cultured for 24-96 h. Cells were fixed (20 min, 10% formalin), permeabilized (20 min, 0.25% Triton X-100/PBS) and hybridized (overnight, 50° C.) with a single-stranded ^33P RNA probe complementary to the (+) strand NS5B (or other genes) contained in the RNA viral genome. Cells were washed, treated with RNAse, washed, heated to 65° C. and counted in a Top-Count Inhibition of replication was read as a decrease in counts per minute (cpm).
Human HuH-7 hepatoma cells, which were selected to contain a subgenomic replicon, carry a cytoplasmic RNA consisting of an HCV 5′ non-translated region (NTR), a neomycin selectable marker, an EMCV IRES (internal ribosome entry site), and HCV non-structural proteins NS3 through NS5B, followed by the 3′ NTR.
`CCOC(=O)[C@H](C)NP(=O)(OC[C@H]1O[C@@H](n2cc(-c3ccn[nH]3)c3c(N)ncnc32)[C@](C)(O)[C@@H]1O)Oc1ccccc1` (stereo in doubt) [Compound 29, Ethyl 2-{[(R)-({(2R,3S,4R,5R)-5-[4-amino-5-(1H-pyrazol-5-yl)-7H-pyrrolo[2,3-d]pyrimidin-7-yl]-3,4-dihydroxy-4-methyltetrahydrofuran-2-yl}methoxy)(phenoxy)phosphoryl]amino}propanoate] showed an EC50 of less than 20 µM. `CCOC(=O)[C@H](C)NP(=O)(OC[C@H]1O[C@@H](n2cc(-c3ncco3)c3c(N)ncnc32)[C@](C)(O)[C@@H]1O)Oc1ccccc1` (stereo in doubt) [Compound 30, Ethyl 2-{[(R)-({(2R,3S,4R,5R)-5-[4-amino-5-(1,3-oxazol-2-yl)-7H-pyrrolo[2,3-d]pyrimidin-7-yl]-3,4-dihydroxy-4-methyltetrahydrofuran-2-yl}methoxy)(phenoxy)phosphoryl]amino}propanoate] showed an EC50 of less than 20 µM. `COc1nc(-c2cn([C@@H]3O[C@H](CO)[C@@H](O)[C@@]3(C)O)c3ncnc(N)c23)cs1` [Compound 4, 5-(2-methoxy-1,3-thiazol-4-yl)-7-(2-C-methyl-β-D-ribofuranosyl)-7H-pyrrolo[2,3-d]pyrimidin-4-amine trifluoroacetate] showed an EC50 greater than 50 µM. Work on `Cn1cc(-c2cn([C@@H]3O[C@H](CO)[C@@H](O)[C@@]3(C)O)c3ncnc(N)c23)nn1` [Compound 8, 7-(2-C-methyl-β-D-ribofuranosyl)-5-(1-methyl-1H-1,2,3-triazol-4-yl)-7H-pyrrolo[2,3-d]pyrimidin-4-amine trifluoroacetate] yielded an EC50 of 20 to 50 µM.

Same assay, conditions: Hepatitis C virus; HuH-7 cells containing a subgenomic HCV Replicon, compounds up to 100 μM in 1% DMSO, cultured 24-96 h; read-out: EC50
`C[C@@]1(O)[C@H](O)[C@@H](CO)O[C@H]1n1cc(-c2ncco2)c2c(N)ncnc21` [Compound 2, 7-(2-C-methyl-β-D-ribofuranosyl)-5-(1,3-oxazol-2-yl)-7H-pyrrolo[2,3-d]pyrimidin-4-amine] gave an EC50 of less than 20 µM. In the case of `C[C@@]1(O)[C@H](O)[C@@H](CO)O[C@H]1n1cc(-c2ncccn2)c2c(N)ncnc21` [Compound 3, 7-(2-C-methyl-β-D-ribofuranosyl)-5-pyrimidin-2-yl-7H-pyrrolo[2,3-d]pyrimidin-4-amine], the EC50 is reported as greater than 50 µM. `C[C@@]1(O)[C@H](O)[C@@H](CO)O[C@H]1n1cc(-c2ccn[nH]2)c2c(N)ncnc21` [Compound 5, 7-(2-C-methyl-β-D-ribofuranosyl)-5-(1H-pyrazol-5-yl)-7H-pyrrolo[2,3-d]pyrimidin-4-amine] showed an EC50 of 20 to 50 µM. For `C[C@@]1(O)[C@H](O)[C@@H](CO)O[C@H]1n1cc(-c2cn[nH]c2)c2c(N)ncnc21` [Compound 6, 7-(2-C-methyl-β-D-ribofuranosyl)-5-(1H-pyrazol-4-yl)-7H-pyrrolo[2,3-d]pyrimidin-4-amine], the EC50 was 20 to 50 µM. `C[C@@]1(O)[C@H](O)[C@@H](CO)O[C@H]1n1cc(-c2ncon2)c2c(N)ncnc21` [Compound 7, 7-(2-C-methyl-β-D-ribofuranosyl)-5-(1,2,4-oxadiazol-3-yl)-7H-pyrrolo[2,3-d]pyrimidin-4-amine] gave an EC50 of less than 20 µM. With `C[C@@]1(O)[C@H](O)[C@@H](CO)O[C@H]1n1cc(-c2cccs2)c2c(N)ncnc21` [Compound 9, 7-(2-C-methyl-β-D-ribofuranosyl)-5-(2-thienyl)-7H-pyrrolo[2,3-d]pyrimidin-4-amine] the EC50 was less than 20 µM. `C[C@@]1(F)[C@H](O)[C@@H](CO)O[C@H]1n1cc(-c2ccn[nH]2)c2c(N)ncnc21` [Compound 21, 7-(2-deoxy-2-fluoro-2-methyl-β-D-ribofuranosyl)-5-(1H-pyrazol-5-yl)-7H-pyrrolo[2,3-d]pyrimidin-4-amine] showed an EC50 of 20 to 50 µM.

Same assay, conditions: HuH-7 cells containing a subgenomic HCV Replicon, compounds up to 100 μM in 1% DMSO, cultured 24-96 h; read-out: EC50
With “7-(2-C-methyl-β-D-ribofuranosyl)-5-(1-methyl-1H-tetrazol-5-yl)-7H-pyrrolo[2,3-d]pyrimidin-4-amine (A) and 7-(2-C-methyl-β-D-ribofuranosyl)-5-(2-methyl-2H-tetrazol-5-yl)-7H-pyrrolo[2,3-d]pyrimidin-4-amine (B) [Compound 1]” the EC50 was less than 20 µM.
